Measurements published in patent US10214546B2, “Btk inhibitors” (MERCK SHARP & DOHME CORP., priority 2014, dated 2019).
Like-named read-outs stand apart in the source and are kept apart here.

Legend:
[1] = molecular target: BTK enzyme (recombinant full-length BTK, hBTK) (Homo sapiens (Human), UniProt Q06187); assay: BTK enzymatic activity LANCE TR-FRET assay; assay type: biochemical; conditions: 50 pM hBTK, 25 μM ATP, 2 μM biotin-A5-peptide; compound range 1 μM to 0.017 nM; read-out: BTK binding IC50
Procedure: Btk Enzyme Activity Assay Methods
BTK enzymatic activity was determined with the LANCE (Lanthanide Chelate Excite) TR-FRET (Time-resolved fluorescence resonance energy transfer) assay. […] Phosphorylation reactions were allowed to proceed for 120 minutes. […] After 60 minutes incubation with detection reagents, reaction plates were read on a PerkinElmer EnVision plate reader using standard TR-FRET protocol. […] IC50 values were determined by 4 parameter robust fit of TR-FRET ratio values vs. (Log10) compound concentrations.

[2] = tested on: adenosine uptake into HeLa cells; assay: [3H]Adenosine uptake assay in HeLa cells; assay type: cell-based; conditions: [3H]adenosine accumulation in HeLa cells, compound range 10 μM to 0.032 nM, read-out: ADU inhibition IC50
Procedure: Compounds are also screened in an adenosine uptake functional cellular assay using the protocol described below:
[^3H]Adenosine Uptake Assay Methods
Adenosine uptake activity was determined by monitoring the accumulation of tritiated adenosine into HeLa cells (ATCC catalog # CCL-2) using a PMT-based radiometric detection instrument. In this assay, the potency (IC50) of each compound was determined from a ten point (1:3 serial dilution; final compound concentration range in assay from 10 µM to […]) titration curve using the following outlined procedure. To each well of a 96-well CytoStar-T scintillating microplate (Perkin Elmer Catalog # RPNQ0163), 25 000 HeLa cells in 100 µL of growth medium comprising: Minimum Essential Media (Life Technologies Catalog #11095-080)+10% (v/v) foetal bovine serum (FBS; Sigma Aldrich Catalog # F2442) was added. These cells were incubated overnight at 37° C. in a humidified atmosphere with 5% (v/v) CO2. After this time the growth medium was removed and replaced with 40 μL assay medium comprising: Hanks balanced salts solution (HBSS; Thermo Fisher Catalog # SH30268.01)+5% (v/v) FBS. Compound stock solutions in DMSO were diluted in assay medium to 2.5× final compound concentration maintaining a constant DMSO concentration of 0.25% (v/v). 40 μL of compound in assay medium was dispensed into individual wells of the Cytostar-T plates and the plates were incubated for 30 minutes under ambient laboratory conditions. Following this incubation, 20 μL of 500 nM [^3H] adenosine (American Radiolabeled Chemicals Inc. […] The amount of radiolabel accumulation was then determined using a Perkin Elmer Topcount NXT microplate reader. In brief, HeLa cells adhere to the bottom of the Cytostar-T plate, uptake of [^3H]adenosine into these cells brings the radiolabel into sufficient proximity to excite the scintillant in the base of the plates. These events are captured by single PMT, time-resolved coincidence counting. IC50 values were determined by 4 parameter robust fit of counts per second values vs. (Log10) compound concentrations.

Chain of BTK enzyme (recombinant full-length BTK, hBTK) (Q06187 whole entry): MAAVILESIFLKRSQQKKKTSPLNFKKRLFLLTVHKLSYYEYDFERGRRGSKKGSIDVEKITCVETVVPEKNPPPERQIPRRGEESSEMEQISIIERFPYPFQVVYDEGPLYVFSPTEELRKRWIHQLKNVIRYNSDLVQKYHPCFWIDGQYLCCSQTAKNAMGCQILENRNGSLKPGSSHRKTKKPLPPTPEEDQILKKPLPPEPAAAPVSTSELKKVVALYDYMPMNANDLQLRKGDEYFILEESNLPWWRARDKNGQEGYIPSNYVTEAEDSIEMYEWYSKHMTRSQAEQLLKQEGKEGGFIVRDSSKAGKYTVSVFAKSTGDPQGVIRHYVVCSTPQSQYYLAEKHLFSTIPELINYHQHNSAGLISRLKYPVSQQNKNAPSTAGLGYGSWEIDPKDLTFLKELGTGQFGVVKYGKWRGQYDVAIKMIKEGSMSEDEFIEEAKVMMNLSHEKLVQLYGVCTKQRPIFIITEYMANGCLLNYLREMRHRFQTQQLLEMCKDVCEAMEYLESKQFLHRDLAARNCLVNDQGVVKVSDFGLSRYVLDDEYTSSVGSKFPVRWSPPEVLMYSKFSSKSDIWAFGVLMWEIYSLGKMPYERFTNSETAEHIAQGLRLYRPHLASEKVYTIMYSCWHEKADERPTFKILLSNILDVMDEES

IC50 [1] | IC50 ([2]; Homo sapiens, HeLa) | IC50 [2] | SMILES
0.27 nM | 1760 nM | – | CC(C)(C)c1cccc([C@](C)(O)c2ccc(-c3nc([C@@H]4CC[C@H]5CCC(=O)N5C4)n4ccnc(N)c34)cc2)c1 [Example 40, (6R,8aS)-6-(8-amino-1-{4-[(1R)-1-(3-tert-bulylphenyl)-1-hydroxyethyl]phenyl}imidazo[1,5-a]pyrazin-3-yl)hexahydroindolizin-3(2H)-one]
116 nM | 588 nM | – | C[C@](O)(c1ccc(-c2nc([C@@H]3CC[C@H]4CCC(=O)N4C3)n3ccnc(N)c23)cc1)c1cccc(Cl)c1 [Example 41, (6R,8aS)-6-(8-amino-1-{4-[(1S)-1-(3-chlorophenyl)-1-hydroxyethyl]phenyl}imidazo[1,5-a]pyrazin-3-yl)hexahydroindolizin-3(2H)-one]
81.4 nM | 1780 nM | – | COc1cccc([C@@](C)(O)c2ccc(-c3nc([C@@H]4CC[C@H]5CCC(=O)N5C4)n4ccnc(N)c34)cc2)c1 [Example 44, (6R,8aS)-6-(8-amino-1-{4-[(1S)-1-hydroxy-1-(3-methoxyphenyl)ethyl]phenyl}imidazo[1,5-a]pyrazin-3-yl)hexahydroindolizin-3(2H)-one]
1.1 nM | 2760 nM | – | COc1cccc([C@](C)(O)c2ccc(-c3nc([C@@H]4CC[C@H]5CCC(=O)N5C4)n4ccnc(N)c34)cc2)c1 [Example 45, (6R,8aS)-6-(8-amino-1-{4-[(1R)-1-hydroxy-1-(3-methoxyphenyl)ethyl]phenyl}imidazo[1,5-a]pyrazin-3-yl)hexahydroindolizin-3(2H)-one]
0.23 nM | 3210 nM | – | Cc1cccc([C@](C)(O)c2ccc(-c3nc([C@@H]4CC[C@H]5CCC(=O)N5C4)n4ccnc(N)c34)cc2)c1 [Example 46, (6R,8aS)-6-(8-amino-1-(4-[(1R)-1-hydroxy-1-(3-methylphenyl)ethyl]phenyl}imidazo[1,5-a]pyrazin-3-yl)hexahydroindolizin-3(2H)-one]
0.47 nM | 3830 nM | – | C[C@@](O)(c1ccc(-c2nc([C@@H]3CC[C@H]4CCC(=O)N4C3)n3ccnc(N)c23)cc1)c1cccc(Cl)c1 [Example 52, (6R,8aS)-6-(8-amino-1-{4-[(1R)-1-(3-chlorophenyl)-1-hydroxyethyl]phenyl}imidazo[1,5-a]pyrazin-3-yl)hexahydroindolizin-3(2H)-one]
6.5 nM | 671 nM | – | Cc1cccc([C@@](C)(O)c2ccc(-c3nc([C@@H]4CC[C@H]5CCC(=O)N5C4)n4ccnc(N)c34)cc2)c1 [Example 53, (6R,8aS)-6-(8-amino-1-{4-[(1S)-1-hydroxy-1-(3-methylphenyl)ethyl]phenyl}imidazo[1,5-a]pyrazin-3-yl)hexahydroindolizin-3(2H)-one]

More lines, now with the values behind:

SMILES | IC50 [1] | IC50 ([2]; Homo sapiens, HeLa) | IC50 [2]
Cn1nc(C(C)(O)c2ccc(-c3nc([C@@H]4CC[C@H]5CCC(=O)N5C4)n4ccnc(N)c34)cc2)cc1C(F)(F)F (stereo partly drawn) [Example 35, (6R,8aS)-6-[8-amino-1-(4-{1-hydroxy-1-[1-methyl-5-(trifluoromethyl)-1H-pyrazol-3-yl]ethyl}phenyl)imidazo [1,5-a]pyrazin-3-yl]hexahydroindolizin-3(2H)-one] | 218 nM | 2230 nM | –
C[C@](O)(c1ccc(-c2nc([C@@H]3CC[C@H]4CCC(=O)N4C3)n3ccnc(N)c23)cc1)c1cc(C(F)(F)F)ccn1 [Example 36] | 1000 nM | 704 nM | –
C[C@@](O)(c1ccc(-c2nc([C@@H]3CC[C@H]4CCC(=O)N4C3)n3ccnc(N)c23)cc1)c1cc(C(F)(F)F)ccn1 [Example 37, (6R,8aS)-6-[8-amino-1-(4-{(1R)-1-hydroxy-1-[4-(trifluoromethyl)pyridin-2-yl]ethyl}phenyl)imidazo[1,5-a]pyrazin-3-yl]hexahydroindolizin-3(2H)-one] | 255 nM | 3470 nM | –
C[C@@](O)(c1ccc(-c2nc([C@@H]3CC[C@H]4CCC(=O)N4C3)n3ccnc(N)c23)cc1)c1cccc(C2CC2)c1 [Example 38, (6R,8aS)-6-(8-amino-1-{4-[(1R)-1-(3-cyclopropylphenyl)-1-hydroxyethyl]phenyl}imidazo[1,5-a]pyrazin-3-yl)hexahydroindolizin-3(2H)-one] | 0.07 nM | 1840 nM | –
CC(C)(C)c1cccc([C@@](C)(O)c2ccc(-c3nc([C@@H]4CC[C@H]5CCC(=O)N5C4)n4ccnc(N)c34)cc2)c1 [Example 39, (6R,8aS)-6-(8-amino-1-{4-[(1S)-1-(3-tert-butylphenyl)-1-hydroxyethyl]phenyl}imidazo[1,5-a]pyrazin-3-yl)hexahydroindolizin-3(2H)-one] | 9.6 nM | 608 nM | –
Cc1cc(-c2nc([C@@H]3CC[C@H]4CCC(=O)N4C3)n3ccnc(N)c23)ccc1C(C)(O)c1cccc(C(F)(F)F)c1 (stereo partly drawn) [Example 42, (6R,8aS)-6-[8-amino-1-(4-{1-hydroxy-1-[3-(trifluoromethyl)phenyl]ethyl}-3-methylphenyl)imidazo [1,5-a]pyrazin-3-yl]hexahydroindolizin-3(2H)-one] | 1000 nM | – | 3230 nM
Cc1cc(-c2nc([C@@H]3CC[C@H]4CCC(=O)N4C3)n3ccnc(N)c23)ccc1C(C)(O)c1cccc(C(F)(F)F)c1 (stereo partly drawn) [Example 43, (6R,8aS)-6-[8-amino-1-(4-{1-hydroxy-1-[3-(trifluoromethyl)phenyl]ethyl}-3-methylphenyl)imidazo [1,5-a]pyrazin-3-yl]hexahydroindolizin-3(2H)-one] | 1000 nM | – | 535 nM
Cc1ccccc1[C@@](C)(O)c1ccc(-c2nc([C@@H]3CC[C@H]4CCC(=O)N4C3)n3ccnc(N)c23)cc1 [Example 47, (6R,8aS)-6-(8-amino-1-{4-[(1S)-1-hydroxy-1-(2-methylphenyl)ethyl]phenyl}imidazo[1,5-a]pyrazin-3-yl)hexahydroindolizin-3(2H)-one] | 183 nM | 2040 nM | –
Cc1ccccc1[C@](C)(O)c1ccc(-c2nc([C@@H]3CC[C@H]4CCC(=O)N4C3)n3ccnc(N)c23)cc1 [Example 48, (6R,8aS)-6-(8-amino-1-{4-[(1R)-1-hydroxy-1-(2-methylphenyl)ethyl]phenyl}imidazo[1,5-a]pyrazin-3-yl)hexahydroindolizin-3(2H)-one] | 2.5 nM | 3300 nM | –
COc1ccccc1[C@@](C)(O)c1ccc(-c2nc([C@@H]3CC[C@H]4CCC(=O)N4C3)n3ccnc(N)c23)cc1 [Example 49, (6R,8aS)-6-(8-amino-1-{4-[(1S)-1-hydroxy-1-(2-methoxyphenyl)ethyl]phenyl}imidazo[1,5-a]pyrazin-3-yl)hexahydroindolizin-3(2H)-one] | 45.2 nM | 2950 nM | –
COc1ccccc1[C@](C)(O)c1ccc(-c2nc([C@@H]3CC[C@H]4CCC(=O)N4C3)n3ccnc(N)c23)cc1 [Example 50, (6R,8aS)-6-(8-amino-1-{4-[(1R)-1-hydroxy-1-(2-methoxyphenyl)ethyl]phenyl}imidazo[1,5-a]pyrazin-3-yl)hexahydroindolizin-3(2H)-one] | 243 nM | 1220 nM | –
C[C@](O)(c1ccc(-c2nc([C@@H]3CC[C@H]4CCC(=O)N4C3)n3ccnc(N)c23)cc1)c1cccc(C2CC2)c1 [Example 51, (6R,8aS)-6-(8-amino-1-{4-[(1S)-1-(3-cyclopropylphenyl)-1-hydroxyethyl]phenyl}imidazo[1,5-a]pyrazin-3-yl)hexahydroindolizin-3(2H)-one] | 5.9 nM | 569 nM | –
CC(O)(c1cccc(C(F)(F)F)c1)c1ccc(-c2nc([C@@H]3CC[C@H]4CCC(=O)N4C3)n3ccnc(N)c23)cc1F (stereo partly drawn) [Example 54, (6R,8aS)-6-[8-amino-1-(3-fluoro-4-{1-hydroxy-1-[3-(trifluoromethyl)phenyl]ethyl}phenyl)imidazo [1,5-a]pyrazin-3-yl]hexahydroindolizin-3(2H)-one] | 1000 nM | – | 473 nM
CCC(O)(c1ccc(-c2nc([C@@H]3CC[C@H]4CCC(=O)N4C3)n3ccnc(N)c23)cc1)c1cccc(C(F)(F)F)c1 (stereo partly drawn) [Example 55, (6R,8aS)-6-[8-amino-1-(4-{1-hydroxy-1-[3-(trifluoromethyl)phenyl]propyl}phenyl)imidazo [1,5-a]pyrazin-3-yl]hexahydroindolizin-3(2H)-one] | 1000 nM | – | 400 nM
